Drawing on the Kinase Knowledgebase extract (Sharma et al. 2016), this text covers IC50 for 11 compounds.

Test [1] has as its target EGFR (human) (UniProt P00533). To be noted: mda-mb-435.
The target in test [2] is EGFR (human) (UniProt P00533). As to conditions: sw 620.
In test [3] the target is EGFR (human) (UniProt P00533). As to conditions: a431.
Test [4] addresses EGFR (human) (UniProt P00533). To be noted: 3t3.
Test [5] has as its target EGFR (human) (UniProt P00533). As to conditions: her2/3t3.
The target of test [6] is EGFR (human) (UniProt P00533). As to conditions: sk-br-3.

Values after ≈ are worked out from the molar mass of the structure shown.

EGFR (human), sequence (P00533 whole entry, looked up): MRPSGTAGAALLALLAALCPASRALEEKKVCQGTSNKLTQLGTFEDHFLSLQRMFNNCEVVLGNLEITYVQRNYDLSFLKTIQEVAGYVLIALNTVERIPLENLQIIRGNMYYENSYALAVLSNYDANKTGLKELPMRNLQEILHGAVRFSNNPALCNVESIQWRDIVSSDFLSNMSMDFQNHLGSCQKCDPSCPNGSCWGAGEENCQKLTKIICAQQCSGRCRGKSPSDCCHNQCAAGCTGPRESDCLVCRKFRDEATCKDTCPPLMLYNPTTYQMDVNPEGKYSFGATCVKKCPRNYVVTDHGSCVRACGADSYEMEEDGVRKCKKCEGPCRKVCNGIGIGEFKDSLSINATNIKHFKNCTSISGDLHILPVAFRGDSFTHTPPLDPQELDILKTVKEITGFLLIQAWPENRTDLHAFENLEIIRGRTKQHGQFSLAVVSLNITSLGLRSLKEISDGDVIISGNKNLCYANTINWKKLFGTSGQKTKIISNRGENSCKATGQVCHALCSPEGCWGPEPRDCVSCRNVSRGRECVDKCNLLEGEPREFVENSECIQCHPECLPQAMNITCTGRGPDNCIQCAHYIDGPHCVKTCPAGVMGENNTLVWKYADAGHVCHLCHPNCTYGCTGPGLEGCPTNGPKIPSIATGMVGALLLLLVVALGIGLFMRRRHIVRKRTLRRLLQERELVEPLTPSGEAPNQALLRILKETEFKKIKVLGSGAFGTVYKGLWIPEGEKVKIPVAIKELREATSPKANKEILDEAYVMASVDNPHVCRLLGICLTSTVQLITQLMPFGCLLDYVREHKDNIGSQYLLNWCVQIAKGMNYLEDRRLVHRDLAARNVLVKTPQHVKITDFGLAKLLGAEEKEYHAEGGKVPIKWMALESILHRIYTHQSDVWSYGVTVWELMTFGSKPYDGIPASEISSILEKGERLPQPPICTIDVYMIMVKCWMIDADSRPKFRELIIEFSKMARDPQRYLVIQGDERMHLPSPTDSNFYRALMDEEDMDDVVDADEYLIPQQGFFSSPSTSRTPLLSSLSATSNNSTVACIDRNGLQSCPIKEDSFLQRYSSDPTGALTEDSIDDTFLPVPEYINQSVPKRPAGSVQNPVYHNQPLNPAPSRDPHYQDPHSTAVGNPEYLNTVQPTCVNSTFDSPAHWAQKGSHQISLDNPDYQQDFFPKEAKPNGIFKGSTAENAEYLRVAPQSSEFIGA

The IC50 is the midpoint of a concentration-inhibition curve. For `COc1cc2ncc(C#N)c(Nc3ccc(F)c(Cl)c3)c2cc1NC(=O)/C=C\CN1CCCC(CO)C1` (stereo not given), the IC50 was found to be 1.83 µg/mL (≈ 3.49 µM) at EGFR (human) [1]; 1.73 µg/mL (≈ 3.3 µM) on EGFR (human) [2]; 0.232 µg/mL (≈ 0.443 µM) at EGFR (human) [3]; 2.87 µg/mL (≈ 5.48 µM) on EGFR (human) [4]; 0.375 µg/mL (≈ 0.716 µM) on EGFR (human) [5].
On to `CN1CCC=C(C(=O)Nc2ccc3ncc(C#N)c(Nc4cccc(Br)c4)c3c2)C1`, for which the IC50 is 3.19 µg/mL (≈ 6.91 µM) at EGFR (human) [1], above 5 µg/mL at EGFR (human) [2], 0.369 µg/mL (≈ 0.798 µM) against EGFR (human) [3] and 1.5 µg/mL (≈ 3.23 µM) against EGFR (human) [6].
Turning to `CCOc1c(Nc2ccc3ncc(C#N)c(Nc4cccc(Br)c4)c3c2)c(=O)c1=O`, the IC50 on EGFR (human) [1] worked out at 27.6 µg/mL (≈ 59.6 µM); on EGFR (human) [2] it was 18 µg/mL (≈ 38.8 µM); against EGFR (human) [3], 4.91 µg/mL (≈ 10.6 µM); at EGFR (human) [6], 1.74 µg/mL (≈ 3.76 µM).
In the case of `COCCN(CC#CC(=O)Nc1ccc2ncc(C#N)c(Nc3cccc(Br)c3)c2c1)CCOC`, the half-inhibitory concentration (IC50) on EGFR (human) [1] was 0.2 µg/mL (≈ 0.373 µM); against EGFR (human) [2], 0.5 µg/mL (≈ 0.932 µM); at EGFR (human) [3], 0.1 µg/mL (≈ 0.186 µM).
`C=CCN(C)CC#CC(=O)Nc1ccc2ncc(C#N)c(Nc3cccc(Br)c3)c2c1`: the IC50 on EGFR (human) [1] and at EGFR (human) [2] was 0.1 µg/mL (≈ 0.211 µM) each time.
For `COc1cc2ncc(C#N)c(Nc3ccc(F)c(Cl)c3)c2cc1NC(=O)/C=C/CN1CCC2(CC1)OCCO2`, the IC50 against EGFR (human) [1] was determined as 3.32 µg/mL (≈ 6.01 µM); against EGFR (human) [2], 2.51 µg/mL (≈ 4.55 µM); at EGFR (human) [3], 0.283 µg/mL (≈ 0.513 µM); on EGFR (human) [6], 0.188 µg/mL (≈ 0.341 µM); against EGFR (human) [4], 2.79 µg/mL (≈ 5.05 µM); on EGFR (human) [5], 0.35 µg/mL (≈ 0.634 µM).
With `COC[C@@H]1CCCN1C/C=C/C(=O)Nc1cc2c(Nc3ccc(F)c(Cl)c3)c(C#N)cnc2cc1OC`, the IC50 came to 1.74 µg/mL (≈ 3.32 µM) against EGFR (human) [1]; 1.24 µg/mL (≈ 2.37 µM) at EGFR (human) [2]; 0.234 µg/mL (≈ 0.447 µM) at EGFR (human) [3]; 0.148 µg/mL (≈ 0.282 µM) on EGFR (human) [6]; 2.1 µg/mL (≈ 4.01 µM) at EGFR (human) [4]; 0.329 µg/mL (≈ 0.628 µM) on EGFR (human) [5].
Take `COC[C@@H]1CCCN1CC#CC(=O)Nc1ccc2ncc(C#N)c(Nc3cccc(Br)c3)c2c1`: the figures for the IC50 against EGFR (human) [1] and at EGFR (human) [2] were 0.3 µg/mL (≈ 0.579 µM) and 0.1 µg/mL (≈ 0.193 µM), respectively.
As for `COCCN(C)C/C=C\C(=O)Nc1cc2c(Nc3ccc(F)c(Cl)c3)c(C#N)cnc2cc1OC`, the IC50 on EGFR (human) [1] is 2.07 µg/mL (≈ 4.16 µM); against EGFR (human) [2], 1.53 µg/mL (≈ 3.07 µM); on EGFR (human) [3], 0.245 µg/mL (≈ 0.492 µM); against EGFR (human) [6], 0.107 µg/mL (≈ 0.215 µM); against EGFR (human) [4] it was 2.04 µg/mL (≈ 4.1 µM); against EGFR (human) [5] it was 0.192 µg/mL (≈ 0.386 µM).
In the case of `COCCN(C)CC#CC(=O)Nc1ccc2ncc(C#N)c(Nc3cccc(Br)c3)c2c1`, the figures for the half-maximal inhibitory concentration (IC50) against EGFR (human) [1], on EGFR (human) [2] and against EGFR (human) [3] were 0.284 µg/mL (≈ 0.577 µM), 0.239 µg/mL (≈ 0.485 µM) and 0.05 µg/mL (≈ 0.102 µM), respectively.
Turning to `COCCOCC#CC(=O)Nc1ccc2ncc(C#N)c(Nc3cccc(Br)c3)c2c1`, the IC50 against EGFR (human) [1] was determined as 3.5 µg/mL (≈ 7.3 µM); on EGFR (human) [2] it was 0.4 µg/mL (≈ 0.834 µM); against EGFR (human) [3], 0.9 µg/mL (≈ 1.88 µM); against EGFR (human) [6], 0.8 µg/mL (≈ 1.67 µM).
